# Data taken from publication PMC3587566, “The Ultra-Potent and Selective TLR8 Agonist VTX-294 Activates Human Newborn and Adult Leukocytes” (PLoS ONE, 2013).
# Like-named read-outs stand apart in the source and are kept apart here.
# Legend:
# Format in all cases: cell-based
# [1] = test system: human neonatal MoDCs; experiment: Neonatal monocyte-derived dendritic cell (MoDC) stimulation, TNF ELISA; details: 24 h
# Source text: Heparinized human newborn cord blood or adult peripheral blood was layered onto Ficoll-Hypaque gradients (Ficoll-Paque PREMIUM, GE Healthcare, Waukesha, WI) to collect CBMC or peripheral blood mononuclear cell layers (PBMC), respectively. Monocytes were isolated from mononuclear cell fractions by positive selection by magnetic microbeads according to the manufacturer’s instructions (Miltenyi Biotec, Auburn, CA) using CD14 or CD33 as a pan-marker for monocytes. Monocyte preparations were >95% pure as assessed by flow cytometry for CD14 as previously described. […] After 5–6 days, immature MoDCs (HLA-DR^+, CD14^−, DC-SIGN^+ as measured by flow cytometry) of >90% purity were harvested by gently pipetting only the loosely adherent fraction and re-plated (10^5 cells/well) in 96-well U-bottom plates in the presence or absence of TLR agonists.
# Following TLR agonist stimulation, MoDCs were resuspended in staining buffer (1×PBS, 0.5% human serum albumin (HSA)) and stained for 30 min at 4°C in the dark (1.5×10^5/per staining) with fluorophore-labeled antibodies (FITC/HLA-DR and PE/CD86) (BD Biosciences). Cells were then centrifuged, washed, fixed (1% paraformaldehyde (PFA)) and filtered prior to flow cytometry analysis using a MoFlo Legacy cytometer (DakoCytomation, Fort Collins, CO) and analyzed using FlowJo software (Tree Star). […]
# [2] = test system: human newborn cord blood; experiment: Newborn whole blood assay, TNF / IL-1β ELISA; details: mean, n = 4-9
# [3] = test system: human adult peripheral blood; experiment: Adult whole blood assay, TNF / IL-1β ELISA; details: mean, n = 4-9; for EC50: Homo sapiens
# [4] = test system: human adult peripheral blood; experiment: Adult whole blood assay, TNF / IL-1β ELISA; details: baseline subtracted
# Source text: (§1) Peripheral blood was collected from healthy adult volunteers, while human newborn cord blood was collected immediately after Cesarean section delivery of the placenta. Births to HIV-positive mothers were excluded. Human experimentation guidelines of the U.S. Department of Health and Human Services, The Brigham & Women’s Hospital, and Boston Children’s Hospital were observed, following protocols approved by the local institutional review boards. Human blood was anti-coagulated with 15–20 units/ml pyrogen-free sodium heparin (American Pharmaceutical Partners, Inc., Schaumberg, IL). All blood products were kept at room temperature and processed within 4 hrs of collection.
# (§2) For assessment of TLR agonist activity in whole blood, we used an adaptation of the method of Kollmann et al., [33]. […] Suspensions containing 200 µl/well were gently mixed by pipetting and incubated for 2–24 h at 37°C in a humidified incubator at 5% CO2. After culture, plates were centrifuged at 500×g and 110–150 µl of supernatant was carefully removed by pipetting without disturbing the cell pellet. Supernatants derived from human leukocyte stimulations were assayed by ELISA for TNF (BD Biosciences, San Jose, CA, USA) and IL-1β (eBiosciences, San Diego, CA). Additionally, WB supernatants were analysed by Multi-Analyte Profiling (MAP). Briefly, supernatant samples were frozen at −80°C and submitted to Myriad RBM (Austin, TX, USA) for screening with a modified Human InflammationMAP® v. 1.6 antigen panel, which analyzed the samples for the presence of 98 analytes associated with inflammation. The minimum threshold for each analyte was set at the minimum detectable dose for that particular assay (defined as three standard deviations above the mean background).
# (§3) Compound concentrations are shown in µM, except for MPLA, which are shown in ng/ml. Data are shown as mean ± SEM of n = 5–8.
# [5] = test system: human newborn cord blood; experiment: Newborn whole blood assay, TNF / IL-1β ELISA; details: for Newborn WBA IL-1β / Newborn WBA TNF: baseline subtracted
# Source text: as §1, §2, §3
compound,measurement,setting,value
CCOCc1nc2c(N)nc3ccccc3c2n1CC(C)(C)O [R848],lowest concentration inducing MoDC TNF production,"[1]; tested 0.1, 0.3, 10 µM",10 µM
same,EC50,"[2]; Homo sapiens, read-out: Newborn WBA TNF EC50",1500 nM
same,EC50,[3]; read-out: Adult WBA IL-1β EC50,1620 nM
same,EC50,[3]; read-out: Adult WBA TNF EC50,1040 nM
same,Adult WBA IL-1β,[4]; agonist 0.1 μM,2 pg/mL
same,Adult WBA TNF,[4]; agonist 0.1 μM,132 pg/mL
same,Adult WBA IL-1β,[4]; agonist 0.3 μM,27 pg/mL
same,Adult WBA TNF,[4]; agonist 0.3 μM,750 pg/mL
same,Adult WBA IL-1β,[4]; agonist 1 μM,779 pg/mL
same,Adult WBA TNF,[4]; agonist 1 μM,6661 pg/mL
same,Adult WBA IL-1β,[4]; agonist 10 μM,4762 pg/mL
same,Adult WBA TNF,[4]; agonist 10 μM,13913 pg/mL
same,Adult WBA IL-1β,[4]; agonist 100 μM,4694 pg/mL
same,Adult WBA TNF,[4]; agonist 100 μM,9982 pg/mL
same,EC50,"[5]; Homo sapiens, mean, n = 4-9, read-out: Newborn WBA IL-1β EC50",6650 nM
same,Newborn WBA IL-1β,[5]; agonist 0.1 μM,0 pg/mL
same,Newborn WBA TNF,[5]; agonist 0.1 μM,0 pg/mL
same,Newborn WBA IL-1β,[5]; agonist 0.3 μM,9 pg/mL
same,Newborn WBA TNF,[5]; agonist 0.3 μM,0 pg/mL
same,Newborn WBA IL-1β,[5]; agonist 1 μM,285 pg/mL
same,Newborn WBA TNF,[5]; agonist 1 μM,2164 pg/mL
same,Newborn WBA IL-1β,[5]; agonist 10 μM,7442 pg/mL
same,Newborn WBA TNF,[5]; agonist 10 μM,33609 pg/mL
same,Newborn WBA IL-1β,[5]; agonist 100 μM,10822 pg/mL
same,Newborn WBA TNF,[5]; agonist 100 μM,20117 pg/mL
monophosphoryl lipid A [MPLA],lowest concentration inducing MoDC TNF production (p<0.05 vs unstimulated),"[1]; tested 1, 10, 100 ng/ml",10 ng/mL
same,Newborn WBA IL-1β EC50,[2],0.01148 µg/mL
same,Newborn WBA TNF EC50,[2],0.01457 µg/mL
same,Adult WBA IL-1β EC50,[3],0.00159 µg/mL
same,Adult WBA TNF EC50,[3],0.01259 µg/mL
same,Adult WBA IL-1β,[4]; agonist 0.1 ng/ml,5 pg/mL
same,Adult WBA TNF,[4]; agonist 0.1 ng/ml,128 pg/mL
same,Adult WBA IL-1β,[4]; agonist 0.3 ng/ml,27 pg/mL
same,Adult WBA TNF,[4]; agonist 0.3 ng/ml,33 pg/mL
same,Adult WBA IL-1β,[4]; agonist 1 ng/ml,95 pg/mL
same,Adult WBA TNF,[4]; agonist 1 ng/ml,215 pg/mL
same,Adult WBA IL-1β,[4]; agonist 10 ng/ml,763 pg/mL
same,Adult WBA TNF,[4]; agonist 10 ng/ml,3353 pg/mL
same,Adult WBA IL-1β,[4]; agonist 100 ng/ml,3153 pg/mL
same,Adult WBA TNF,[4]; agonist 100 ng/ml,9158 pg/mL
same,Newborn WBA IL-1β,[5]; agonist 0.1 ng/ml,0 pg/mL
same,Newborn WBA TNF,[5]; agonist 0.1 ng/ml,0 pg/mL
same,Newborn WBA IL-1β,[5]; agonist 0.3 ng/ml,0 pg/mL
same,Newborn WBA TNF,[5]; agonist 0.3 ng/ml,11 pg/mL
same,Newborn WBA IL-1β,[5]; agonist 1 ng/ml,24 pg/mL
same,Newborn WBA TNF,[5]; agonist 1 ng/ml,29 pg/mL
same,Newborn WBA IL-1β,[5]; agonist 10 ng/ml,682 pg/mL
same,Newborn WBA TNF,[5]; agonist 10 ng/ml,642 pg/mL
same,Newborn WBA IL-1β,[5]; agonist 100 ng/ml,1628 pg/mL
same,Newborn WBA TNF,[5]; agonist 100 ng/ml,3665 pg/mL
